According to PMC10222512, “Thiocarbonyl Derivatives of Natural Chlorins: Synthesis Using Lawesson’s Reagent and a Study of Their Properties” (Molecules, 2023):
“Also recorded” adds a separate entry of the source. One block for each molecule: values may come before it.

Key:
[1] = UV-Vis absorption and fluorescence spectra; format: physicochemical; conditions: dichloromethane; for fluorescence maximum: excitation at 550 nm
Experimental: Because the pigments noted above are photoactive compounds, it was important to determine the effect of the sulfur atom on their spectral characteristics.
Absorption and fluorescence spectra were recorded on Shimadzu UV1800 UV/VIS (Shimadzu, Duisburg, Germany) and Shimadzu RF-5301 (Shimadzu, Duisburg, Germany) spectrophotometers in quartz cells (0.4 × 1.0 cm) with an optical path length of 1 cm (spectral slit width 1 nm), using dichloromethane, acetone, and water as the solvents. Absorption spectra were recorded in the range of 350–750 nm. Fluorescence spectra were recorded in the range of 600–800 nm (excitation wavelength 550 nm), using dichloromethane, acetone, and water as the solvents. The fluorescence quantum yield was determined by the relative method. A solution of purpurin-18 in toluene was used as the standard. Both ^1H and ^13C NMR spectra were recorded on a Bruker DPX 300 spectrometer (Bruker, Alzenau, Germany). NMR samples were prepared in d6-acetone and CDCl3. Matrix-assisted laser desorption/ionization (MALDI) mass spectra were recorded on a Bruker Ultraflex TOF/TOF spectrometer (Bruker, Alzenau, Germany), with 2,5-dihydroxybenzoic acid as the matrix. Elemental analysis was performed on a Vario Micro Cube analyzer (Elementar, Berlin, Germany).

[2] = tested on: S37 murine sarcoma cell line; test: Photoinduced (combined) cytotoxicity, MTT assay after irradiation; format: cell-based; conditions: S37 cells; for IC50: 4 h PS incubation
Experimental: To estimate the combined effect (photoinduced and chemocytotoxic) of compound (4) and platinum complex (7), a two-step experiment was designed: incubation of cells with PS for 4 h and irradiation and subsequent incubation for 48 or 72 h followed by estimation of cell survival by the MTT assay.
The S37 murine sarcoma cell line (collection of the N.N. Blokhin Research Institute of Oncology) was used to estimate photoinduced activity and cytotoxicity.
Cells were cultured in DMEM medium (PanEco, Russia) with addition of 2 mM L-glutamine (PanEco, Moscow, Russia) and 10% fetal calf blood serum (FCS) (Corning, New York, NY, USA) in 25 cm^2 culture vials (Corning, USA) at 37 °C in a humid atmosphere containing 5% carbon dioxide. Upon passivation, the Versene solution (PanEco, Russia) was used to remove the cells from the substrate. For in vitro studies, cells of the 3rd and 4th passages were used with an optimal seeding concentration of 6 × 10^4 cells/mL.
The concentrations of the solutions obtained were 0.6 mg/mL for compound (4) and 0.1 mg/mL for compound (7). All the volumes obtained were filtered through a Millipore membrane filter with a pore size of 0.22 μm. Next, the samples were diluted in 24-well plates (Corning, USA) on the cell-culturing medium. The final concentration of the substances ranged from 32 ng/mL to 20 μg/mL.
To perform the experiments, S37 tumor cells were seeded into 96-well plates in the amount of 6 × 10^3 cells per well in a 100 μL volume. Exposure was performed in the exponential phase of cell growth 24 h after seeding. Solutions of compounds in the complete culture medium were added to the wells at final concentrations of 32 ng/mL to 20 μg/mL, in triplicate. The time of cell incubation with compounds before irradiation was 4 h. The culture medium was used as the blank. Light exposure was performed with a halogen lamp through a KS-10 broadband filter (λ > 620 nm). The light dose was 10 J/cm^2. After light exposure, the plates with cells were placed in a CO2 incubator for 24, 48, or 72 h.
Cell survival was estimated using the colorimetric MTT test (24 and 72 h after exposure), which is based on the ability of dehydrogenases in living cells to convert yellow water-soluble 3-(4-5-dimethyl-[…]-2)-2,5-diphenyltetrazolium bromide to blue crystals of formazan, whose amount is measured spectrophotometrically.
Before the test, cells were washed from cytotoxic agents. Then, 0.5% solution of 3-(4,5-dimethylthiazolyl-2)-2,5-diphenyltetrazolium bromide was added to the wells and the system was incubated for 3 h under standard conditions. After incubation, the medium with the MTT-reagent was removed and formazan crystals were dissolved for 10 min with dimethyl sulfoxide. Optical density was measured on a Multiscan FC multichannel plate photometer (Thermo scientific) at 550 nm.
The growth inhibition (GI) of cells in a culture was calculated using the following formula:GI(%) = [ODk − ODo/ODk)] × 100%, where ODo is the optical density of formazan in the test wells and ODk is the optical density of formazan in the control wells.
Quantitative parameters were calculated using the results of three independent tests.

[3] = tested on: S37 murine sarcoma cell line; test: Dark cytotoxicity, MTT assay; format: cell-based
Experimental: (§2) To estimate cytotoxicity, cells were incubated with the substances for 72 h under dark conditions in a CO2 incubator.
(§3) Cell survival was estimated using the colorimetric MTT test (24 and 72 h after exposure), which is based on the ability of dehydrogenases in living cells to convert yellow water-soluble 3-(4-5-dimethyl-tetrazolyl-2)-2,5-diphenyltetrazolium bromide to blue crystals of formazan, whose amount is measured spectrophotometrically.

[4] = Dark cytotoxicity, MTT assay; format: cell-based, murine; conditions: mouse, S37 murine sarcoma cells; S37 cells; 72 h incubation of compounds with cells, no irradiation, MTT
Experimental: as §2, §3

[5] = Chemical stability in cell culture medium at different pH (Qy band intensity); format: physicochemical
Experimental: (§1) The chemical stability of compounds 4 and 7 was also studied in the lysate of S37 sarcoma cells (pH = 7.8), as well as in the cell culture medium at different pH values. The stability was assessed by the change in the intensity of the Qy bands as described above.

[6] = Chemical stability in lysate of S37 sarcoma cells (Qy band intensity); format: physicochemical; conditions: Cell lysate S37 (pH = 7.8)
Experimental: as §1

[7] = Chemical stability in 4% aqueous micellar solution of Kolliphor ELP (absorption band intensity vs time); format: physicochemical
Text: The stability of pyropheophorbide a 13^1-thioketone (6) in 4% aqueous micellar solution of Kolliphor ELP over time was studied at a neutral pH by monitoring the variation in the Q2 band intensity in the absorption spectra of the sample.
At the next step, we studied the chemical stability of complex 7 obtained in Kolliphor ELP aqueous micellar solutions vs. time at various pH values based on the variation in the intensity of the Qy band in the EAS of the samples (Figure 4).
A solution of compounds (4) or (7) in dichloromethane (1–2 mL) was added dropwise with continuous argon bubbling to a freshly prepared 4% aqueous solution of Kolliphor ® ELP (5 mL) heated to 45 °C. Bubbling was continued until strong foaming started. A clear dark-red solution with a concentration of 0.25 mg/mL was obtained, which was then successively filtered through a 0.45 µm PTFE filter and a 0.22 µm PTFE filter. The concentrations of the resulting micellar solutions were monitored spectrophotometrically.

Molecule: C=Cc1c(C)c2cc3nc(c4c5[nH]c(cc6nc(cc1[nH]2)C(C)=C6CC)c(C)c5C(=O)C4)[C@@H](CCC(=O)OC)[C@@H]3C [Compound 4, pyropheophorbide a methyl ester, reference compound]
- fluorescence maximum [1]: 684 nm
- IC50 ([2]; Mus musculus, S37, light or radiation study, irradiation at 10 J/cm^2, MTT after 24 h, read-out: IC50, Photoinduced cytotoxicity): 4198 ± 13 nM
- IC50 ([2]; Mus musculus, S37, light or radiation study, irradiation at 10 J/cm^2, MTT after 48 h, read-out: IC50, Combined cytotoxicity): 4076 ± 11 nM
- IC50 ([2]; Mus musculus, S37, light or radiation study, irradiation at 10 J/cm^2, MTT after 72 h, read-out: IC50, Combined cytotoxicity): 4023 ± 13 nM
- photoinduced activity, times lower than that of the platinum complex ([2]; versus platinum complex 7): 8.8 times
- cytotoxic effect without light irradiation (in words) ([3]; S37 sarcoma cells, 72 h incubation, dark): no cytotoxic effect on cells; also recorded: does not have a pronounced cytotoxicity
- IC50 at 72 h [4]: > 36.4 µM
- Content, % ([5]; pH 4, 0 min): 100%
- Intensity at 666 nm ([5]; pH 4, 0 min): 0.9538
- Content, % ([5]; pH 4, 4 h): 70%
- Intensity at 666 nm ([5]; pH 4, 4 h): 0.6677
- Content, % ([5]; pH 4, 24 h): 60%
- Intensity at 666 nm ([5]; pH 4, 24 h): 0.5723
- Content, % ([5]; pH 4, 72 h): 58%
- Intensity at 666 nm ([5]; pH 4, 72 h): 0.5532
- Content, % ([5]; pH 7, 0 min): 100%
- Intensity at 666 nm ([5]; pH 7, 0 min): 0.9538
- Content, % ([5]; pH 7, 4 h): 93%
- Intensity at 666 nm ([5]; pH 7, 4 h): 0.887
- Content, % ([5]; pH 7, 24 h): 87%
- Intensity at 666 nm ([5]; pH 7, 24 h): 0.8298
- Content, % ([5]; pH 7, 72 h): 79%
- Intensity at 666 nm ([5]; pH 7, 72 h): 0.7535
- Content, % ([5]; pH 9, 0 min): 100%
- Intensity at 666 nm ([5]; pH 9, 0 min): 0.9538
- Content, % ([5]; pH 9, 4 h): 85%
- Intensity at 666 nm ([5]; pH 9, 4 h): 0.8107
- Content, % ([5]; pH 9, 24 h): 78%
- Intensity at 666 nm ([5]; pH 9, 24 h): 0.744
- Intensity at 666 nm ([5]; pH 9, 72 h): 0.7058
- Content, % ([6]; 0 min): 100%
- Intensity at 666 nm ([6]; 0 min): 0.9538
- Content, % ([6]; 4 h): 91%
- Intensity at 666 nm ([6]; 4 h): 0.8679
- Content, % ([6]; 24 h): 82%
- Intensity at 666 nm ([6]; 24 h): 0.7821
- Content, % ([6]; 72 h): 76%
- Intensity at 666 nm ([6]; 72 h): 0.7249

Molecule: Pheophorbide a [Compound 3, reference compound]
- long-wave absorption maximum (Q2 band) [1]: 666 nm
- fluorescence maximum [1]: 680 nm

More lines, main results first:

- long-wave absorption maximum (Q2 band) [1]: 708 nm
- fluorescence maximum [1]: 723 nm
- decrease of Q2 band ([7]; 4% Kolliphor ELP micellar solution, neutral pH, after 3 h): more than 50%
- conversion of thioketone to pyropheophorbide a (4) ([7]; 4% Kolliphor ELP micellar solution, neutral pH, after 24 h): completely converted
Molecule: C=Cc1c(C)c2cc3nc(c4c5[nH]c(cc6nc(cc1[nH]2)C(C)=C6CC)c(C)c5C(=S)C4)[C@@H](CCC(=O)OC)[C@@H]3C [Compound 6, Pyropheophorbide a 13^1-Thioketone]

- Content, % ([5]; pH 4, 0 min): 100%
- Intensity at 675 nm ([5]; pH 4, 0 min): 0.913
- Content, % ([5]; pH 4, 4 h): 25%
- Intensity at 675 nm ([5]; pH 4, 4 h): 0.2282
- Content, % ([5]; pH 4, 24 h): 17%
- Intensity at 675 nm ([5]; pH 4, 24 h): 0.1552
- Content, % ([5]; pH 4, 72 h): 11%
- Intensity at 675 nm ([5]; pH 4, 72 h): 0.1004
- Content, % ([5]; pH 7, 0 min): 100%
- Intensity at 675 nm ([5]; pH 7, 0 min): 0.913
- Content, % ([5]; pH 7, 4 h): 97%
- Intensity at 675 nm ([5]; pH 7, 4 h): 0.8856
- Content, % ([5]; pH 7, 24 h): 94%
- Intensity at 675 nm ([5]; pH 7, 24 h): 0.8582
- Content, % ([5]; pH 7, 72 h): 91%
- Intensity at 675 nm ([5]; pH 7, 72 h): 0.833
- Content, % ([5]; pH 9, 0 min): 100%
- Intensity at 675 nm ([5]; pH 9, 0 min): 0.913
- Content, % ([5]; pH 9, 4 h): 87%
- Intensity at 675 nm ([5]; pH 9, 4 h): 0.7943
- Content, % ([5]; pH 9, 24 h): 75%
- Intensity at 675 nm ([5]; pH 9, 24 h): 0.6847
- Content, % ([5]; pH 9, 72 h): 65%
- Intensity at 675 nm ([5]; pH 9, 72 h): 0.5277
- Content, % ([6]; 0 min): 100%
- Intensity at 675 nm ([6]; 0 min): 0.913
- Content, % ([6]; 4 h): 89%
- Intensity at 675 nm ([6]; 4 h): 0.8126
- Content, % ([6]; 24 h): 84%
- Intensity at 675 nm ([6]; 24 h): 0.7669
- Content, % ([6]; 72 h): 79%
- Intensity at 675 nm ([6]; 72 h): 0.7213
- chemical stability (Qy band intensity) ([7]; Kolliphor ELP micellar solution, pH = 7): remained stable for 24 h
Molecule: C=Cc1c(C)c2cc3nc(c4c5[nH]c(cc6nc(cc1[nH]2)C(C)=C6CC)c(C)c5C(=[S+][Pt-2]([NH3+])([NH3+])[Cl])C4)[C@@H](CCC(=O)OC)[C@@H]3C.O=[N+]([O-])[O-] (some centres unmarked) [Compound 7, Platinum Complex of Pyropheophorbide a 13^1-Thioketone]
- IC50 ([2]; irradiation at 10 J/cm^2, MTT after 24 h, read-out: IC50, Photoinduced cytotoxicity): 478 ± 9 nM
- IC50 ([2]; irradiation at 10 J/cm^2, MTT after 48 h, read-out: IC50, Combined cytotoxicity): 146 ± 7 nM
- IC50 ([2]; irradiation at 10 J/cm^2, MTT after 72 h, read-out: IC50, Combined cytotoxicity): 98 ± 5 nM
- increase of photocytotoxicity on increasing incubation time after irradiation ([2]; from 24 h to 72 h after irradiation): 5 fold
- IC50 ([3]; S37 cells, 72 h incubation of compounds with cells, no irradiation, MTT): 271 ± 7 nM
- chemical stability (Qy band) ([7]; Kolliphor ELP micellar solution, acid, pH = 4): hypsochromic shift in the Qy band to the 666 nm region
- chemical stability (Qy band intensity) ([7]; Kolliphor ELP micellar solution, alkaline, pH = 9): a precipitate formed and the intensity of the Qy absorption band decreased

- long-wave absorption maximum (Q2 band) [1]: 706 nm
- fluorescence maximum [1]: 719 nm
Molecule: C=Cc1c(C)c2cc3nc(c4c5[nH]c(cc6nc(cc1[nH]2)C(C)=C6CC)c(C)c5C(=S)C4C(=O)OC)[C@@H](CCC(=O)OC)[C@@H]3C (some centres unmarked) [Compound 5]
